Experiments:
ddY-N mouse = experiment: Body weight gain of young mice over 28 days of administration (Example 7); assay type: in vivo
Description: A total of 120 animals (60 animals for each of male and female) of about 4 weeks old of ddY-N mouse produced by Nippon Ikagaku Dobutsu Shizai Kenkyusho Co., Ltd. was purchased and subjected to 1 week of medical inspection to confirm that their healthy state is normal, and then used in the test. The test plots were set to a total of 4 plots of a control plot in which distilled water for injection is administered into the stomach using a stomach tube at a ratio of 10 ml per 1 kg body weight of the mouse to be tested for 28 continuous days, and 3 test plots in which ALA hydrochloride is administered in the same manner at respective ratios of 5 mg, 10 mg and 25 mg per 1 kg body weight of the mouse to be tested. The mice to be tested were divided into 12 groups, 1 group including 5 males or females, in such a manner that average body weight of each group became almost uniform, and 3 groups of males or females were allotted to each plot and raised for 28 days. The mice to be tested were raised by each group using a series of five stainless steel cages arranged in a raising room set to a room temperature of 23.0±2.0° C. and an irradiation time of 12 hours/day. Body weight gain was calculated by measuring individual body weight at intervals of 1 week from the start of the test.

[1] = system: glutathione peroxidase (GPx); experiment: GPx activity of thymus tissue (Example 3); assay type: in vivo, mouse; conditions: 10 mg/kg orally once a day for 7 days
Description: Mice (35 to 45 weeks old, BALB/cAJc1) preliminary raised for 1 week were injected with 10 mg of ALA hydrochloride per 1 kg mouse body weight once a day for 7 days continuously. ALA hydrochloride was adjusted to a concentration of […] with distilled water and orally administered to the mice. After the test, each mouse was sacrificed and the thymus of mouse was collected to measure superoxide dismutase (SOD) activity of its tissue. To the collected thymus, 1.0 ml of 0.25 M sucrose solution was added, and the mixture homogenized and then centrifuged at 10,000 G for 10 minutes, and the resulting supernatant solution was used as the enzyme solution. […] That is, 250 μl of a reaction solution containing 125 μl of 0.1 M potassium phosphate buffer (pH 7.5), 10 μl of the enzyme liquid, 60 μl of 0.1 unit/ml xanthine oxidase, 45 μl of distilled water and 10 μl of 0.3 mM MPEC was dispensed into Luminescencer-PSN (manufactured by Atto Corp.), 50 μl of 0.72 mM hypoxanthine (pH 7.5) was added for emission. […]
In addition, glutathione peroxidase (GPx) activity was also measured. […]
The calculation was carried out by the following formula using the molecular extinction coefficient of NADPH of a=6.3 cm^2/μmole, by calculating the slope of straight line ΔOD (ΔOD=Δcm (quantity of change of y axis)×OD Max/full cm) from the chart. […]

[2] = system: superoxide dismutase (SOD); experiment: SOD activity of thymus tissue (Example 3); assay type: in vivo, mouse; conditions: 10 mg/kg orally once a day for 7 days
Description: Mice (35 to 45 weeks old, BALB/cAJc1) preliminary raised for 1 week were injected with 10 mg of ALA hydrochloride per 1 kg mouse body weight once a day for 7 days continuously. ALA hydrochloride was adjusted to a concentration of […] with distilled water and orally administered to the mice. After the test, each mouse was sacrificed and the thymus of mouse was collected to measure superoxide dismutase (SOD) activity of its tissue. To the collected thymus, 1.0 ml of 0.25 M sucrose solution was added, and the mixture homogenized and then centrifuged at 10,000 G for 10 minutes, and the resulting supernatant solution was used as the enzyme solution. The measurement was carried out using an emission reagent for antioxidant ability measurement, MPEC (2-methyl-6-p-methoxyphenylethynylimidazopyrazinone) (manufactured by Atto Corp.). That is, 250 μl of a reaction solution containing 125 μl of 0.1 M potassium phosphate buffer (pH 7.5), 10 μl of the enzyme liquid, 60 μl of 0.1 unit/ml xanthine oxidase, 45 μl of distilled water and 10 μl of 0.3 mM MPEC was dispensed into Luminescencer-PSN (manufactured by Atto Corp.), 50 μl of 0.72 mM hypoxanthine (pH 7.5) was added for emission. For the calculation of emission inhibition ratio, the buffer was used instead of the enzyme liquid. For the calculation, a calibration curve was prepared using standard SOD, and the concentration calculation was carried out using this.
The test was carried out using 5 male and 5 female mice, a total of 10 animals, for each plot, and the values were shown by average value. It was confirmed that the SOD activity or GPx activity is improved in both cases of male and female in the ALA-treated plot.

ALA dehydrase (ALAD) = experiment: ALAD activity of blood (Example 5); assay type: in vivo, mouse; conditions: male mice, 10 mg/kg orally once a day for 7 days
Description: Mice (35 to 45 weeks old, BALB/cAJc1) preliminary raised for 1 week were injected with 10 mg of ALA hydrochloride per 1 kg mouse body weight once a day for 7 days continuously. ALA hydrochloride was adjusted to a concentration of […] with distilled water and orally administered to the mice. After the test, each mouse was sacrificed to collect mouse blood, and ALA dehydrase (ALAD) activity (the activity of ALA in which it is dimerized and thereby forms porphobilinogen (hereinafter referred to as “PBG”) as one molecule pyrrole substance) and porphobilinogen deaminase (PBGD) activity (the activity to convert from PBG to hydroxymethylbilane) per 1 ml of the blood were measured. […] To 0.02 ml of heparin-treated mouse whole blood, 0.33 ml of distilled water was added, the mixture was adjusted to a total volume of 0.5 ml by adding thereto 0.05 ml of 0.5 M Na-phosphate buffer (pH 6.4), 0.05 ml of 0.1 M DTT (containing 1 mM ZnSO4) and 0.05 ml of 50 mM ALA hydrochloride and was kept at 37° C. for 30 minutes, the reaction was stopped by adding 0.5 ml of 1 M trichloroacetic acid, and then Ehrlich reagent was added to a supernatant after centrifugation at 3000 rpm in the same volume, and precisely 10 minutes thereafter, absorbance at 553 nm, which is a characteristic absorbance of the compound formed by the reaction of Ehrlich reagent with PBG, was measured (OD) using a spectrophotometer. […]

NCC(=O)CCC(=O)O [ALA, 5-aminolevulinic acid]
Growth (growth curves, body weight gain) (ddY-N mouse; 10 mg/kg into the stomach for 28 days, compared with control, 5 mg/kg and 25 mg/kg plots, averages of males and females): superior growth than other 3 plots | Health state (ddY-N mouse; ALA-treated groups, 5, 10 and 25 mg/kg for 28 days): abnormal health state was not fund | GPx activity ([1]; female mice): 0.67 U/ml | GPx activity ([1]; male mice): 0.61 U/ml | SOD activity ([2]; female mice): 30.7 U/ml | Total SOD activity ([2]; female mice): 31.84 U/organ | SOD activity ([2]; male mice): 20.2 U/ml | Total SOD activity ([2]; male mice): 20.95 U/organ | ALAD activity (ALA dehydrase (ALAD)): 1.76 μmol PBG/ml RBC/h

Source: patent US8790712B2, “Constitutional function-improving agents” (Cosmo Oil Co., Ltd., priority 2004, dated 2014)
